Read-outs that look alike come from different tables or passages of the source.
How the values were obtained:
[1] = target: T1, 5-HT2A receptor (Homo sapiens, UniProt P28223); experiment: cell-based; type: cell-based; set-up: expressed in transfected cells; host or cells: HEK293, stably transfected; conditions: Ca2+ flux; for Emax: HEK293, agonist, read-out: 5-HT2A % Act @ Max Dose; for EC50: HEK293
In short: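 Using HEK293 lines for the 5-HT2 subtypes and Gα15-coupled CHO cells for 5-HT1A, compounds were tested as agonists. Fluorescent Ca2+ signal followed dye loading (Fluo-4 Direct, 2.5 mM final probenecid, 50 min, 37 °C).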

[2] = target: T2, 5-HT2C receptor (Homo sapiens, UniProt P28335); experiment: cell-based; conditions: read-out: 5-HT2C % Act @ Max Dose
T2 sequence (P28335 33-458): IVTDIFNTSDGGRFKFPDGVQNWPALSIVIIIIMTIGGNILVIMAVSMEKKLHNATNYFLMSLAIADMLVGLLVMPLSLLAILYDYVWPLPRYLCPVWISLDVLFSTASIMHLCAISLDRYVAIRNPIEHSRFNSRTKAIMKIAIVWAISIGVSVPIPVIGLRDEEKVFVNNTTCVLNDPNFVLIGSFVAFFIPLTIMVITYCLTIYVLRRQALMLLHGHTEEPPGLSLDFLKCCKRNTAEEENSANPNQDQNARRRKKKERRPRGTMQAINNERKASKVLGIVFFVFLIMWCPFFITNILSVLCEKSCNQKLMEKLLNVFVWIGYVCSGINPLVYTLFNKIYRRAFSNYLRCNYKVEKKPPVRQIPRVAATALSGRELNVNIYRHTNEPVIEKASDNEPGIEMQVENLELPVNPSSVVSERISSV

[3] = in vitro; type: in vitro ADME, human
[4] = target: T3, 5-HT1A receptor (Homo sapiens, UniProt P08908); experiment: cell-based; conditions: agonist, Ca2+ flux; for Emax: CHO, read-out: 5-HT1A % Act @ Max Dose; for EC50: CHO cells with Gα15
T3 construct: expressed in transfected cells; host or cells: CHO cells, stably transfected
T3 sequence (P08908 1-422): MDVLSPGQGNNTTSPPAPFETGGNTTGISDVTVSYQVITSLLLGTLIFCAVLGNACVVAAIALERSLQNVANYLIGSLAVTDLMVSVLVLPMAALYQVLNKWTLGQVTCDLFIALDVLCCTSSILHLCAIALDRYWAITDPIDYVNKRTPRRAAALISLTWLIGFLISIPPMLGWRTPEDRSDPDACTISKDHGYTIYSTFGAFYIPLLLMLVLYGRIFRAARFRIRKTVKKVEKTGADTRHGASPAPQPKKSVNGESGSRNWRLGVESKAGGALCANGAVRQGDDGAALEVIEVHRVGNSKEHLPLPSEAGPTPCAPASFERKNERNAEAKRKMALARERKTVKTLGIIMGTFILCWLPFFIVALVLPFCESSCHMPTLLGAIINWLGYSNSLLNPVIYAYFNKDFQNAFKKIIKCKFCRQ
In short: (§1)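 FLIPR Tetra fluorescence read-out of calcium flux after compound addition. Receptor-expressing stable lines were used (HEK293 for 2A/2B; CHO with Gα15 for 1A), dye-loaded with Fluo-4 Direct and 2.5 mM final probenecid, 50 min at 37 °C.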

[5] = in vitro; type: in vitro ADME, rat
Text: RLM Stability Pooled RLM from male Sprague-Dawley rats (Xenotech R1000) were used.

[6] = in vitro; type: in vitro ADME, mouse
Text: MLM Stability Pooled MLM from male CD-1 mice (BIOIVT M00501) were used.

[7] = target: T4, 5-HT2B receptor (Homo sapiens, UniProt P41595); experiment: cell-based; type: cell-based; conditions: Ca2+ flux; for Emax: HEK293, agonist, read-out: 5-HT2B % Act @ Max Dose; for EC50: HEK293
T4 construct: expressed in transfected cells; host or cells: HEK293, stably transfected
In short: as §1

[8] = target: T1, 5-HT2A receptor; experiment: cell-based; type: cell-based; conditions: beta-arrestin recruitment
In short: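 Agonist activity expressed as percent of maximal control ligand signal after vehicle subtraction, from chemiluminescence (RLU). Cells carry ProLink-tagged 5-HT2A plus β-arrestin fused to β-gal deletion mutant; ligand-driven arrestin binding restores β-galactosidase activity (PathHunter). Cells pre-incubated at 37° C.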

[9] = system: C57BL/6 mice; experiment: Mouse head twitch response (HTR) assay (observer-counted); type: in vivo; conditions: SC
Protocol: Agonists of the 5-HT2A receptor are well known to induce this effect in rodents and the potency of this HTR is correlated with hallucinogenic potency in humans.
Animals. Adult male C57BL/6 mice, aged 6-8 weeks (body weight 20-25 g) were used in this experiment. Animals were housed under controlled temperatures and 12-hour light/dark cycles (lights on between 07:00-19:00 h), with ad libitum food and water. This study was carried out in strict accordance with the requirements of the Committee for the Purpose of Control and Supervision of Experiments on Animals (CPCSEA), India. All efforts were made to minimize suffering.
Procedure. Mice were administered one dose of the drug and immediately placed into a small open field for behavioral observation. Animals were observed continuously for 20 mins and the number of head twitches (HTs) were counted by an observer blind to the treatment condition.
Statistical Analysis. The data points shown are the mean±standard error of the mean (SEM). Analysis was performed using GraphPad Prism 6. Curves were fit using a non-linear gaussian distribution to calculate ED50 and Emax values.
Additional disclosed compounds were tested in the mouse head twitch response (HTR) assay according to the procedure described in Example 57 (administered SC). […] Lastly, compounds with much larger benzyl and phenethyl substituents on the amine nitrogen (e.g., 10 and 11) were low efficacy in this assay, consistent with their bias toward arrestin signaling (see Example 55).

[10] = target: T2, 5-HT2C receptor; experiment: Ca2+ flux functional assay at 5-HT2C (WuXi 5-HT2C protocol); type: cell-based; set-up: expressed in transfected cells
Protocol: Disclosed compounds were tested for agonist activity at several serotonin receptor subtypes (5-HT2A, […], 5-HT2C, and 5-HT1A) using Ca^2+ flux functional assays and the 5-HT1B receptor using a cAMP accumulation assay, with the results summarized in Table 4. […] Potent agonist activity was also observed at the other serotonin receptors tested, although the selectivity profile among the receptors varied across compounds. […] However, at the same time, the N-propyl compounds were more efficacious agonists at 5-HT2B than the corresponding N-methyl compounds. The selectivity of disclosed compounds for 5-HT2A over 5-HT2C and 5-HT1A was less predictable and varied widely across compounds. […] An azetidinyl amide substituent tended to increase potency at 5-HT1A relative to 5-HT2A.
Functional Assays at 5-HT2A, 5-HT2B, and 5-HT1A. Agonist activity at 5-HT2A, 5-HT2B, 5HT2C and 5-HT1A receptors was determined using a FLIPR Ca^2+ flux assay at WuXi AppTec (Hong Kong) Limited according to their standard protocols. Briefly, stably transfected cells expressing the receptor of interest and Gα15 in the case of 5-HT1A (HEK293 for 5-HT2A and 5-HT2B; CHO cells for 5-HT1A) were grown and plated in a 384 well plate and incubated at 37° C. and 5% CO2 overnight. A solution of 250 mM probenecid in 1 mL FLIPR assay buffer was prepared fresh. This was combined with a fluorescent dye (Fluo-4 Direct™) to make a final assay concentration of 2.5 mM. Compounds were diluted 1:3.16 for 10 points and 750 nL was added to a 384 well compound plate using ECHO along with 30 μL assay buffer. The fluorescent dye was then added to the assay plate along with assay buffer to a final volume of 40 μL. The cell plate was incubated for 50 min at 37° C. and 5% CO2 and placed into the FLIPR Tetra along with the compound plate. 10 μL of references and compounds were then transferred from the compound plate into the cell plate and the fluorescent signal was read.

[11] = target: T1, 5-HT2A receptor; experiment: biochemical; type: binding; set-up: expressed in transfected cells; host or cells: HEK293, stably transfected; conditions: [3H]ketanserin 1 nM; HEK293 stable cell line; 1 h, 25 °C
In short: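 Values reflect [^3H]ketanserin binding competition. Assay conditions were adapted from the literature.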

[12] = target: T5, 5-HT1B receptor (Homo sapiens, UniProt P28222); experiment: cAMP accumulation functional assay at 5-HT1B; type: cell-based; conditions: agonist, cAMP accumulation
T5 construct: expressed in transfected cells
In short: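 Stably transfected human 5-HT1B cells were incubated 60 min at room temperature, after which detection reagent was applied for another 60 min at RT. The read-out was cAMP accumulation, used as a measure of agonist activity.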

[13] = HLM 0.50 mg/mL, NADPH 1 mM, 1 μM compound, pH 7.4, 37° C., 60 min
[14] = RLM (male Sprague-Dawley) 0.50 mg/mL, NADPH 1 mM, 1 μM compound, pH 7.4, 37° C., 60 min
[15] = MLM (male CD-1) 0.50 mg/mL, NADPH 1 mM, 1 μM compound, pH 7.4, 37° C., 60 min

T4 sequence (P41595 whole entry): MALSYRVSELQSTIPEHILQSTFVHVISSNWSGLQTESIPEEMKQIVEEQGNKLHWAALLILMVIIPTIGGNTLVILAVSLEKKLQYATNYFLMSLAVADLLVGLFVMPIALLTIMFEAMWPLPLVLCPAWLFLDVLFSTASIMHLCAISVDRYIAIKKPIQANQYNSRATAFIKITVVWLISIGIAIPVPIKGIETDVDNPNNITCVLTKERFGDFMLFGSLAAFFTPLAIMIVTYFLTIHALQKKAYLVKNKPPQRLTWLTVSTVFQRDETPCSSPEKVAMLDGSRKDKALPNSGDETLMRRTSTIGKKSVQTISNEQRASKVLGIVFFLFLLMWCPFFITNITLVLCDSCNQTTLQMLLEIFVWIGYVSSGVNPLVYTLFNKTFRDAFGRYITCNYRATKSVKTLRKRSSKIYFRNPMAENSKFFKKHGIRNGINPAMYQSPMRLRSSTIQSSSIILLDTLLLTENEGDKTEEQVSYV
T1 sequence (P28223 whole entry): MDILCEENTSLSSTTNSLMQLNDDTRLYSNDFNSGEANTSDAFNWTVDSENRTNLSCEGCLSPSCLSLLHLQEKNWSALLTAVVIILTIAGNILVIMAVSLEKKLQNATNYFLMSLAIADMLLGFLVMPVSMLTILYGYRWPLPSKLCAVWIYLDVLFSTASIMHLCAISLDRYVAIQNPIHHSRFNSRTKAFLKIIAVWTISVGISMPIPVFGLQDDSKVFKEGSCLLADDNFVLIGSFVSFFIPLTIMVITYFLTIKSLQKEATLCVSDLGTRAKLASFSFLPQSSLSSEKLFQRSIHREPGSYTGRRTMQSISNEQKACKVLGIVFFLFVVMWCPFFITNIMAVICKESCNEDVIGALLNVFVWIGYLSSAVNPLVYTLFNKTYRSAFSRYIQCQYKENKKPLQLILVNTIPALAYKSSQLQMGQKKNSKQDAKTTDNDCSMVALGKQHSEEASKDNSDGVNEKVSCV
T5 sequence (P28222 whole entry): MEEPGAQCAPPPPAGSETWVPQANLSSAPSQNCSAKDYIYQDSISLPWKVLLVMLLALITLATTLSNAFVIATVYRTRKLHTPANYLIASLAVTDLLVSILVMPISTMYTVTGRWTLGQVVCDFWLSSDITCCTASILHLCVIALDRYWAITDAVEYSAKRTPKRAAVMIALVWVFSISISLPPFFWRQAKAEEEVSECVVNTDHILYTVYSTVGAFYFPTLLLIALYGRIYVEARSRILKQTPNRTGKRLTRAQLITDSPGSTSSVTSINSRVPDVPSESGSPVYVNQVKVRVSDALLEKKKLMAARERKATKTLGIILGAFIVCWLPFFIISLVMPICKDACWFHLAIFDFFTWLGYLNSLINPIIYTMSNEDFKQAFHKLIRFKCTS

SMILES | Emax ([1]; HEK293, max dose) | Emax ([4]; CHO cells with Gα15, max dose) | Emax ([7]; HEK293, max dose) | 5-HT2A arrestin agonist class [8] | Intrinsic clearance (Clint) [3, 13] | half-life (t1/2) [3, 13] | Intrinsic clearance (Clint) [5, 14] | half-life (t1/2) [5, 14] | Intrinsic clearance (Clint) [6, 15] | half-life (t1/2) [6, 15] | EC50 ([1]; agonist) | EC50 [4] | Ki [11] | EC50 ([7]; agonist) | further results
CCC(CC)NC(=O)[C@@H]1C=C2c3cccc4[nH]cc(c34)C[C@H]2N(C)C1 [Int14] | 93.3% | 102% | 9.84% | partial agonists | – | – | – | – | – | – | – | – | – | – | Emax [2]: 99.1%; half-life (t1/2) ([3]; human, microsomes, pH 7.4): 17.593 min; half-life (t1/2) ([5]; rat, microsomes, pH 7.4): 37.988 min; half-life (t1/2) ([6]; mouse, microsomes, pH 7.4): 6.07 min; Emax ([8]; agonist, max dose, read-out: 5-HT2A Arrestin % Act @ Max Dose): 44.4%; HTR at most efficacious dose (bound) ([9]; 20 min, most efficacious dose): < 15 HTR
C[C@H]1C[C@H](C)N1C(=O)[C@@H]1C=C2c3cccc4[nH]cc(c34)C[C@H]2N(C)C1 [Int11] | – | – | – | partial agonists | 53.9 µL/min/mg | 25.7 min | 25.3 µL/min/mg | 54.9 min | 100 µL/min/mg | 13.9 min | – | – | – | – | 5-HT2A Arrestin % Act @ Max Dose ([8]; agonist, max dose): 49.27%; 5-HT2A arrestin Emax (bound) ([8]; partial agonists): < 60%; ED50 (HTR) ([9]; 20 min, curve fit poor in some cases): 0.0154 mg/kg; Emax, HTR/20 min ([9]; curve fit poor in some cases): 10.93 HTR/20 min; efficacy in HTR assay ([9]; maximal effect): lower efficacy than analogous compounds bearing other amide substituents; # HTR/20 min at Most Efficacious Dose ([9]; most efficacious dose 0.1 mg/kg): 10.667 HTR/20 min
CCN(CC)C(=O)[C@@H]1C=C2c3cccc4[nH]cc(c34)C[C@H]2N(Cc2ccccc2C)C1 [Compound 99, (6aR,9R)—N,N-diethyl-7-(2-methylbenzyl)-4,6,6a,7,8,9-hexahydroindolo[4,3-fg]quinoline-9-carboxamide] | 73.6% | 69.9% | 1.41% | – | – | – | – | – | – | – | 1.21 µM | 19.6 µM | 0.00922 µM | > 10 µM | EC50 [10]: > 10 µM; Emax ([10]; agonist, tested using WuXi 5-HT2C protocol, max dose, read-out: 5-HT2C % Act @ Max Dose (* WuXi protocol)): 0.56%; microsomal CLint ([3]; human, microsomes, HLM 0.50 mg/mL, NADPH 1 mM, 1 μM compound, pH 7.4, 37° C., 60 min, read-out: Intrinsic clearance (Clint)): 86.4 µL/min/mg; half-life ([3]; human, microsomes, HLM 0.50 mg/mL, NADPH 1 mM, 1 μM compound, pH 7.4, 37° C., 60 min, read-out: half-life (t1/2)): 16 min; microsomal CLint ([5]; rat, microsomes, RLM (male Sprague-Dawley) 0.50 mg/mL, NADPH 1 mM, 1 μM compound, pH 7.4, 37° C., 60 min, read-out: Intrinsic clearance (Clint)): 174 µL/min/mg; half-life ([5]; rat, microsomes, RLM (male Sprague-Dawley) 0.50 mg/mL, NADPH 1 mM, 1 μM compound, pH 7.4, 37° C., 60 min, read-out: half-life (t1/2)): 8 min; microsomal CLint ([6]; mouse, microsomes, MLM (male CD-1) 0.50 mg/mL, NADPH 1 mM, 1 μM compound, pH 7.4, 37° C., 60 min, read-out: Intrinsic clearance (Clint)): 426 µL/min/mg; half-life ([6]; mouse, microsomes, MLM (male CD-1) 0.50 mg/mL, NADPH 1 mM, 1 μM compound, pH 7.4, 37° C., 60 min, read-out: half-life (t1/2)): 3.3 min
CCN(CC)C(=O)[C@@H]1C=C2c3cccc4[nH]cc(c34)C[C@H]2N(Cc2ccnc(OC)c2)C1 [Compound 79] | – | – | – | – | 61.2 µL/min/mg | 22.7 min | 80.5 µL/min/mg | 17.2 min | 298.4 µL/min/mg | 4.6 min | 2.5 µM | 8.05 µM | 0.182 µM | > 10 µM | 5-HT2A % Act @ Max Dose ([1]; agonist, HEK293, max dose): 68.17%; EC50 [12]: > 10 µM; 5-HT1B % Act @ Max Dose ([12]; max dose): 42.45%; EC50 ([10]; agonist, Ca2+ flux, tested using WuXi 5-HT2C protocol, read-out: 5-HT2C EC50 (* WuXi protocol)): > 10 µM; 5-HT2C % Act @ Max Dose (* WuXi protocol) ([10]; agonist, tested using WuXi 5-HT2C protocol, max dose): 0.60* %; 5-HT1A % Act @ Max Dose ([4]; CHO cells with Gα15, max dose): 77.71%; 5-HT2B % Act @ Max Dose ([7]; agonist, HEK293, max dose): 1.38%

— patent US20260317319A1, “NOVEL ERGOLINES AND METHODS OF TREATING MOOD DISORDERS” (Gilgamesh Pharma Inc., priority 2023, published 2026)
